A short description of test [1]: Luminescence-based cell-based high throughput dose response assay to identify activators of the DAF-12 from the parasite S. stercoralis (ssDAF-12). In kind it is functional.
Test [2] has as its target T1, Oxysterols receptor LXR-beta (Homo sapiens, UniProt P55055).
T1 sequence (P55055 whole entry): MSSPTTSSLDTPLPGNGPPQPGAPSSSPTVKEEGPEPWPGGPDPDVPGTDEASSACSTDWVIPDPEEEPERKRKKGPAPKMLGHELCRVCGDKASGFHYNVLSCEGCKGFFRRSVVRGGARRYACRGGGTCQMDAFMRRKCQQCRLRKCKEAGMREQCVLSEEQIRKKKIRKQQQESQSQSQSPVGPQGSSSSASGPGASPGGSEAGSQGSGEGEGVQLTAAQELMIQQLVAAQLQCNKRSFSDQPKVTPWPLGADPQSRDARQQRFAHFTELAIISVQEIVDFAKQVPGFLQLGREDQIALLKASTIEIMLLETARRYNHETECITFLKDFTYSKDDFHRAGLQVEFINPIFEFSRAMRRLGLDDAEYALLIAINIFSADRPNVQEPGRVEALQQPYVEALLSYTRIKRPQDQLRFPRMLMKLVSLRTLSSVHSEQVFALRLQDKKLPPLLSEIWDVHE
The experiment in a line: LXR agonists, Gal4 luciferase reporter, dose response, counter-screen for ssDAF-12 agonist project, cell-based, luminescence, HEK293, S. stercoralis campaign (AID 720737). Format: functional. The note with it: read-out: IC50 (the source's name). (In general: Reporter assays use an easily measured gene product as a stand-in for the process of interest.)

The target in a further test is Ephrin type-A receptor 4 (Mus musculus, UniProt Q03137). Briefly: inhibitors of EphA4 binding to KYL peptide, primary screen, biochemical, colorimetric, mouse EphA4 (AID 689). Format: functional.
Test [3] deals with T2, Bcl-2-related protein A1 (Mus musculus, UniProt Q07440).
T2 sequence (Q07440 whole entry): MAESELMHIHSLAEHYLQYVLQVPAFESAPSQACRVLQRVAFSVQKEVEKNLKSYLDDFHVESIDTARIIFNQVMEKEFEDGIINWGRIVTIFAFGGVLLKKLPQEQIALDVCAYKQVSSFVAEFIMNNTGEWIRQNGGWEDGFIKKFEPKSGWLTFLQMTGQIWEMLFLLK
The experiment in a line: Bfl-1 binding inhibitors, SAR follow-up, biochemical, fluorescence polarization (AID 1070).

Test [4] addresses T2, Bcl-2-related protein A1. Briefly: Bfl-1 inhibitors blocking BH3 peptide binding, confirmation, biochemical, TR-FRET, mouse Bfl-1 (AID 621).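 Further: TR-FRET binding of GST-Bfl-1 to FITC-labelled Bid peptide via terbium antibody.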
Test [5] has as its target Glyceraldehyde-3-phosphate dehydrogenase (Homo sapiens, UniProt P04406).
Test [6] has as its target G-protein coupled receptor 183 (Homo sapiens, UniProt P32249). Briefly: SAR confirmation of small molecule antagonists of the EBI2 receptor via a luminescent beta-arrestin assa. Format: functional.
The nature of test [7]: MITF: Counter assay: A375 proliferation Measured in Cell-Based System Using Plate Reader - 2084-03_Inhibitor_Dose_DryPowder_Activity_Set8. In kind it is functional. The note with it: A-375.
Test [8] in a line: MITF Orthogonal Assay: SK-MEL-5 CTG Assay Measured in Cell-Based System Using Plate Reader - 2084-02_Inhibitor_Dose_DryPowder_Activity_Set7. In kind it is functional.
A short description of test [9]: TRPM1 promoter luciferase reporter signal decrease, dose response, MITF inhibitor project, cell-based, SK-MEL-5, dry powder, set 8 (AID 624430). Format: functional.
The target in test [10] is Disintegrin and metalloproteinase domain-containing protein 17 (Homo sapiens, UniProt P78536). The experiment in a line: exosite inhibitors of ADAM17, dose response, biochemical (AID 743260).
Test [11] in a line: ADAM10 protease inhibitors, dose response, selectivity assay for ADAM17 exosite inhibitor project, biochemical, FRET peptide substrate, recombinant human ADAM10 (AID 743259).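 Further: ADAM10 enzyme cleaving a FRET peptide substrate.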
The nature of test [12]: M. tuberculosis H37Rv growth inhibitors, H37Rv strain (AID 1626). In kind it is functional.
For the next test, the system named is HEK293. Briefly: HEK293T cell cytotoxicity, dose response, cytotoxicity control, ATP luminescence, cherry-pick samples (AID 687005).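 Further: cells exposed to compound for 48 hours.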 In kind it is functional, cell-based. The note with it: Homo sapiens.
Test [13] in a line: HEK293 Cytotoxicity Assay Measured in Cell-Based System Using Plate Reader - 7071-01_Inhibitor_Dose_CherryPick_Activity_Set2. In kind it is functional.
Test [14] can be described thus: Concentration-dependent survival of SW480 colon cancer line, luminescence detection with CellTiter-Glo, half-maximal inhibitory concentration (AID 1117338). In kind it is functional.
The nature of test [15]: CellTiter-Glo luminescent dose response of DLD-1 viability loss (AID 1117352). In kind it is functional. (Cellular ATP, detected with luciferase, serves as a proxy for viable cell number.)
A short description of test [16]: cytotoxicity toward HT-29 cells – cell-based, CellTiter-Glo luminescence, IC50, dose response (AID 1117330). In kind it is functional.
Test [17] in a line: cytotoxicity toward HCT116 cells – cell-based, CellTiter-Glo luminescence, IC50, dose response (AID 1117332). Format: functional. The note with it: HCT-116.
The nature of test [18]: SNU-C1 cell viability reduction, dose response, CellTiter-Glo luminescence (AID 1117323). In kind it is functional, cell-based.
A short description of test [19]: HepG2 cell cytotoxicity, dose response, cytotoxicity control, cherry-picked samples (AID 1159577). In kind it is functional, cell-based.
In the next test the target is Paired box protein Pax-8 (Homo sapiens, UniProt Q06710). Briefly: inhibitors of PAX8-driven TPO luciferase reporter, dose response, RMG-I cells, cherry-pick (AID 687027).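 Further: luciferase reporter driven by Pax8 target thyroperoxidase promoter measured by SteadyGlo luminescence.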 Format: functional, cell-based.
Test [20] in a line: P. falciparum Dd2 growth inhibitors, dose response, SYBR Green, cherry-picked samples (AID 1159567). In kind it is functional, cell-based.
A short description of test [21]: cytotoxicity in OVCAR8 ovarian cancer cells, dose response, PAX8 project, cell-based, plate reader, dry powder samples (AID 743197). In kind it is functional. The note with it: OVCAR-8.
Test [22] is described as follows: non-specific cell cytotoxicity, dose response, cytotoxicity control for PAX8 inhibitor project, plate reader, dry powder samples (AID 743021). Format: functional, cell-based.
Test [23] is described as follows: IGROV1 ovarian cancer cell cytotoxicity, dose response, PAX8 inhibitor project, plate reader, dry powder samples (AID 743043). Format: functional, cell-based. The note with it: IGROV-1.
Test [24] in a line: half-maximal inhibitory concentration for glucagon-like peptide-1 release, STC-1 cell line, dose-response (AID 1117345). In kind it is functional, cell-based.
Test [25] is described as follows: Glucagon-like peptide 1 release potency, NCI-H716 cell line, dose-response, half-maximal inhibitory concentration (AID 1117344). In kind it is functional, cell-based.
Test [26] is described as follows: cytotoxicity in OV-90 ovarian cancer cells, dose response, PAX8 inhibitor project, cell-based, plate reader, dry powder, SA8 (AID 743149). In kind it is functional.
Test [27] in a line: NIH:OVCAR-3 ovarian cancer cell cytotoxicity, dose response, PAX8 inhibitor project, plate reader, dry powder samples (AID 743044). Format: functional, cell-based.
The nature of test [28]: PAX2 cell-based inhibition, dose response, selectivity assay for PAX8 inhibitor project, plate reader, dry powder samples (AID 743048).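 Further: HEK293 cells carrying a WT1 promoter luciferase reporter driven by expressed Pax2; potency is for inhibition of Pax2 driven reporter signal.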 In kind it is functional.
A short description of test [29]: PAX5 activity inhibitors, dose response, selectivity assay for PAX8 inhibitor project, cell-based, plate reader, dry powder samples (AID 743047).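 Further: HEK293 cells carrying a Pax5 driven CD19 promoter luciferase reporter; potency of inhibitors that lower reporter luminescence.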 Format: functional.
Test [30] can be described thus: cytotoxicity dependent on PAX8, dose response, cell-based, plate reader, dry powder (AID 743049). In kind it is functional.
The nature of test [31]: cytotoxicity in COV434 cells, dose response, cytotoxicity control for PAX8 inhibitor project, cell-based, plate reader, dry powder, SA7 (AID 743145). Format: functional.

Active and inactive are the calls of the source. A value given as a limit tells only on which side of the number the result lay.

By IC50 is commonly meant the concentration needed to halve the response being measured. The AC50 is the midpoint of the concentration-response curve, whichever way the signal moves.

Paired box protein Pax-8, sequence (Q06710 whole entry): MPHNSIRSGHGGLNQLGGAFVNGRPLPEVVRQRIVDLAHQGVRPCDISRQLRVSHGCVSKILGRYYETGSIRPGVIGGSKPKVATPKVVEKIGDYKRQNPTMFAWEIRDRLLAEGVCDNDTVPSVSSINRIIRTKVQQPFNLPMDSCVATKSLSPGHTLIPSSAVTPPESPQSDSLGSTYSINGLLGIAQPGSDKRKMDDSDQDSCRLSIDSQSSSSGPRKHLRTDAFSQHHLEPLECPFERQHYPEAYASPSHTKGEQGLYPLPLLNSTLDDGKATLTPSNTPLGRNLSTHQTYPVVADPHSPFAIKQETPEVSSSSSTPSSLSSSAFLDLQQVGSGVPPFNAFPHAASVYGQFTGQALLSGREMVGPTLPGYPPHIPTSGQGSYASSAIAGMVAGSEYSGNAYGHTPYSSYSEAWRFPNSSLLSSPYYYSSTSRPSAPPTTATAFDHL
Ephrin type-A receptor 4, sequence (Q03137 whole entry): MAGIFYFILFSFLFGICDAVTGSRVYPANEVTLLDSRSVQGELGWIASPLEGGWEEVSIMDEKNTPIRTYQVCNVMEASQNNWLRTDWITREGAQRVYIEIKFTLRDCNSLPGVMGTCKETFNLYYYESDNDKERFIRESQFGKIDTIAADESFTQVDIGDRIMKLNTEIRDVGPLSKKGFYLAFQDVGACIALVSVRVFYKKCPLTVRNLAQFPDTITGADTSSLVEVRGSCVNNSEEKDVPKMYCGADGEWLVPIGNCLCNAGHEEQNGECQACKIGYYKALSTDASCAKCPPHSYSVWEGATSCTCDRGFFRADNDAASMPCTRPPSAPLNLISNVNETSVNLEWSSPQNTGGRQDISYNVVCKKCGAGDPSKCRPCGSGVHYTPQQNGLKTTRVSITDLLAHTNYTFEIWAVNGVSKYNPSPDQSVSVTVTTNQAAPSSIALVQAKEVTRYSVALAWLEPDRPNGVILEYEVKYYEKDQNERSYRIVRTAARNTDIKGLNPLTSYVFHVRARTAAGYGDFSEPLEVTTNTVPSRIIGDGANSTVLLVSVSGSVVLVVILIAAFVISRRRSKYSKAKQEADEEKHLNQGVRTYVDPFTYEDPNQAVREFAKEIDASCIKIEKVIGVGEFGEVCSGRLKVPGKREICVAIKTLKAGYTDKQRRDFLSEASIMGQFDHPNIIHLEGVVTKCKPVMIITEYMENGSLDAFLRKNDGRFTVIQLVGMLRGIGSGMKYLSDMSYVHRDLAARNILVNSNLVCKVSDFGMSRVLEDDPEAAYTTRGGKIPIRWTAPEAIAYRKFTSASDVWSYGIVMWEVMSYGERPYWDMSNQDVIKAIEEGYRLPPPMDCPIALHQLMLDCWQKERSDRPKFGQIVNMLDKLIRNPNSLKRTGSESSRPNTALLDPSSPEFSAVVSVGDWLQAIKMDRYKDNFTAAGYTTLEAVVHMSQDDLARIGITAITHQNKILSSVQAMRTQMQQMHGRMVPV
Glyceraldehyde-3-phosphate dehydrogenase, sequence (P04406 whole entry): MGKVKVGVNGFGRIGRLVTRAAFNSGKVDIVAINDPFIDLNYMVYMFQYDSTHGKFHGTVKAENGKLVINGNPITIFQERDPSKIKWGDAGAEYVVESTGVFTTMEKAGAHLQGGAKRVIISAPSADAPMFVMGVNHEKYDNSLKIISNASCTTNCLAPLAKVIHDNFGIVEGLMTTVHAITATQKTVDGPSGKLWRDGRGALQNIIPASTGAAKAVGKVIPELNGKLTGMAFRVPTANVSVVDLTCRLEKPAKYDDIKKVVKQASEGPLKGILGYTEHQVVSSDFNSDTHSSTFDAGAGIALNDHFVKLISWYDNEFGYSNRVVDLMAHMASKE
Disintegrin and metalloproteinase domain-containing protein 17, sequence (P78536 whole entry, the tested form may be a part): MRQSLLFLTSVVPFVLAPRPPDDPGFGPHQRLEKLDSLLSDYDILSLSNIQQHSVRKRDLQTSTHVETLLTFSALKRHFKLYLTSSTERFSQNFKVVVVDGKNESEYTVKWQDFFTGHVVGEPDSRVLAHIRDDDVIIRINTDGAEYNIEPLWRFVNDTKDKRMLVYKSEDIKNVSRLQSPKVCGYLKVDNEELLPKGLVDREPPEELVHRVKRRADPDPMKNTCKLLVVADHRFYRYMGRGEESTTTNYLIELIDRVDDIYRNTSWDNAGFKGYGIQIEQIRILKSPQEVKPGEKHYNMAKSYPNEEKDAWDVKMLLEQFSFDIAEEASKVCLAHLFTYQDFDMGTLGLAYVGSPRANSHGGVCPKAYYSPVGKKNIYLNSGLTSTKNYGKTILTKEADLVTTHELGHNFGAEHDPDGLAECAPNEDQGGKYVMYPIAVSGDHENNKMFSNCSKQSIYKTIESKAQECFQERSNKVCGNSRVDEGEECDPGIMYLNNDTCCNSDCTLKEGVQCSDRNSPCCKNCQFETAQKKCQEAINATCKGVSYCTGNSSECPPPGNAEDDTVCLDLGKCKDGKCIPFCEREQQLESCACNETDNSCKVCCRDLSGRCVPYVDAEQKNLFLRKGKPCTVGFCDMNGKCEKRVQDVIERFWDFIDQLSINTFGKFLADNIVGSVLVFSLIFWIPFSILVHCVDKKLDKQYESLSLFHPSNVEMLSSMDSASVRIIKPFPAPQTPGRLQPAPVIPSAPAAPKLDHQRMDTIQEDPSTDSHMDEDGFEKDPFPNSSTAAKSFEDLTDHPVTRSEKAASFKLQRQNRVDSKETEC
G-protein coupled receptor 183, sequence (P32249 whole entry): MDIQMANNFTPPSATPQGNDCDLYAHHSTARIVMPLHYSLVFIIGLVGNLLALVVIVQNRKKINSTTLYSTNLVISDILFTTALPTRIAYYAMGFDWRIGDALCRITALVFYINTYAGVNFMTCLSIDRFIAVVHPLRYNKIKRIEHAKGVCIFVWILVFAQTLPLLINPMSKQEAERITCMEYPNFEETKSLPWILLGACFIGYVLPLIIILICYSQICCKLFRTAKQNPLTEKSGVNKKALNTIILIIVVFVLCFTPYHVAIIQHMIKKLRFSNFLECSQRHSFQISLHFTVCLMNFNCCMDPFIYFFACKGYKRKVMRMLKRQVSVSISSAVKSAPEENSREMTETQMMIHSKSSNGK

Consider `O=C1c2ccccc2C(=O)N1CC(O)CN1CCOCC1` (configuration not stated), for which the IC50 in [1] was > 67.5 µM (inactive). Further, in test [2], the EC50 is > 67.5 µM (inactive).

As for `CCCN1C(=O)/C(=C/C=C2\N(CC)c3ccccc3C2(C)C)SC1=S`, on Ephrin type-A receptor 4, the IC50 was 5.08 µM (active).

For the molecule `CCN1CCN(C2=C(Cl)C(=O)N(c3ccc(Cl)nc3)C2=O)CC1`, the figures for the half-maximal inhibitory concentration (IC50) (on Bcl-2-related protein A1 [3]; on Bcl-2-related protein A1 [4]; in test [5]) were 15 µM (active), 20.8 µM (active) and > 100 µM (not active), respectively.

Regarding `O=C(/C=C/c1ccccc1F)N1CCN(S(=O)(=O)c2ccc(Br)cc2)CC1`, the concentration for half-maximal inhibition (IC50) in test [6] was 0.252 µM (active).

Turning to `O=C1C(Nc2ccc(Cl)cc2)=C(N2CCCCC2)C(=O)c2ccccc21`, the values for the half-maximal activity concentration (AC50) in test [7], in test [8] and in test [9] were 26.8 µM (active), 4.38 µM (active) and 2.87 µM (active), respectively.

`O=C(NCC1COc2ccccc2O1)c1cccc(S(=O)(=O)N2CCN(c3ccccc3)CC2)c1` (configuration not stated): the IC50 in test [10] and in test [11] was > 69.5 µM (inactive) throughout.

Consider `Cc1ccsc1/C=C/C1=Cc2c(sc(NC(=O)CSc3nnc(N)[nH]3)c2C#N)C(C)(C)C1`, for which, on Ephrin type-A receptor 4, the concentration for half-maximal inhibition (IC50) is 3.15 µM (active).

For `CCCC(=O)C1=C(NCCc2c(C)[nH]c3ccc(C)cc23)CCCC1=O`, in test [12], the concentration for half-maximal inhibition (IC50) was > 100 µM (active).

In the case of `C[C@@H]1CCCCO[C@H](CN(C)Cc2ccccc2)[C@H](C)CN([C@@H](C)CO)C(=O)c2cc(NS(=O)(=O)c3cccs3)ccc2O1`, the AC50 (in the test with HEK293; in test [13]) was 30.9 µM (active) throughout.

`CC(C(=O)O)c1cccc(C(=O)c2ccccc2)c1` (configuration not stated) [KETOPROFEN]: the IC50 in [14] is 10.3 µM (inactive); in test [15], 8.64 µM (inactive); in test [16] it was 14.4 µM (inactive); in [17] it was 10.5 µM (inactive); in [18], 3.8 µM (active).

Consider `O=C1CN(S(=O)(=O)Cc2ccccc2)C[C@@H]2[C@@H](c3ccc(C#Cc4ccc(F)cc4)cc3)[C@@H](CO)N12`, for which the concentration at half-maximal activity (AC50) in test [19] was 9.1 µM (active); at Paired box protein Pax-8, 4.64 µM (active); in [20], 5.57 µM (active); in [21], 35.9 µM (active); in [22] it was 18.5 µM (active); in [23] it was 17.4 µM (active).

For the molecule `CCCCCCCCCCCC[N+](C)(C)CCOc1ccccc1` [DOMIPHEN BROMIDE], the IC50 was > 40 µM (inactive) in [24] and 16.2 µM (inactive) in test [25].

`CCc1ccc(/C=C2\SC(=S)N(CCCC(=O)N(CCO)c3ccccc3)C2=O)cc1`: the concentration at half-maximal activity (AC50) in test [26] was 35.1 µM (active); in test [27] it was 29.1 µM (active); in test [28], 31.9 µM (active); at Paired box protein Pax-8 it was 7.65 µM (active); in test [29] it was 33 µM (active); in test [30], 15.1 µM (active). Also, the AC50 in test [23] was 9.33 µM (active); in [31] it was 8.05 µM (active).

The record behind these values is ChEMBL document CHEMBL1201862, “PubChem BioAssay data set” (2004).
